Patent US12492188B2, “1H-benzo[D]imidazole derivatives as TLR9 inhibitors for the treatment of fibrosis” (BRISTOL-MYERS SQUIBB COMPANY, priority 2020, dated 2025)
Where two headings read alike, the source gives them in different places.

Key:
Format in all cases: cell-based
[1] = molecular target: T1, human TLR9 (Homo sapiens, UniProt Q9NR96); experiment: TLR9 inhibition reporter assay (HEK-Blue cells, secreted embryonic alkaline phosphatase reporter)
T1 construct: host or cells: HEK-Blue cells (HEK293-derived reporter line)
T1 sequence (Q9NR96 26-1032): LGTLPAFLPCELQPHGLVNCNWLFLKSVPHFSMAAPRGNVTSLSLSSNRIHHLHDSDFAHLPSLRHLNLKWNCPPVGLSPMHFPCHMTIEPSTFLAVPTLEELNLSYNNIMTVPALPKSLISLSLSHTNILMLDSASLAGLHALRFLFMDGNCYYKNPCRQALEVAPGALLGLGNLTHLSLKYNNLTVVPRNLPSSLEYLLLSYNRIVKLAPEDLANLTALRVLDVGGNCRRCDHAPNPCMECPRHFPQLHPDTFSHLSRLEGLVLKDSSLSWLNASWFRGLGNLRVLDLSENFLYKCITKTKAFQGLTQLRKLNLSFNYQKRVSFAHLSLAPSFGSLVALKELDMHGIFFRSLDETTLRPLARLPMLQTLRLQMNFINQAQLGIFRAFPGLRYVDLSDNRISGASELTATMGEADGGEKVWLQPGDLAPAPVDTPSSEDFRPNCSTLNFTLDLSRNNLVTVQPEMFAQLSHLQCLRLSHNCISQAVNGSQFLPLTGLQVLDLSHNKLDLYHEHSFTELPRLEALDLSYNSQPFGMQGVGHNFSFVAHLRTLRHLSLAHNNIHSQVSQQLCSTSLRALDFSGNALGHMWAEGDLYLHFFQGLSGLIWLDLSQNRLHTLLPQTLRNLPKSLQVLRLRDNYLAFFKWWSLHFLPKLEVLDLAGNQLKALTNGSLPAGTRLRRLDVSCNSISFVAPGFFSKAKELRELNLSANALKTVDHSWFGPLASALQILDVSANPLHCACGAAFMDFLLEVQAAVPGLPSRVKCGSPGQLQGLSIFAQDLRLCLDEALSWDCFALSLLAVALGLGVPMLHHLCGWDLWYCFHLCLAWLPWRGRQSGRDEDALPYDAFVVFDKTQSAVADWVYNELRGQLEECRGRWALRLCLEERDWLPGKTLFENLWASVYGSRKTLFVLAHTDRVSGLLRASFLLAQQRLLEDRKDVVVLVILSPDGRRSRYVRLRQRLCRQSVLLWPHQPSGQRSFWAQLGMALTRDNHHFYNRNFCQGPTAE
Procedure, shortened: (§1)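 Steps: seed receptor-specific HEK-Blue cells; add compound, 0.05 nM–50 μM; wait 30 min at room temperature; add final gardiquimod 7.5 μM, R848 15.9 μM or ODN2006 5 nM for TLR7, TLR8 or TLR9; incubate 22 h at 37 °C; detect NF-κB/AP-1-driven SEAP.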

[2] = molecular target: T2, human TLR7 (Homo sapiens, UniProt Q9NYK1); experiment: TLR7 inhibition reporter assay (HEK-Blue cells, secreted embryonic alkaline phosphatase reporter); details: HEK-Blue cells overexpressing human TLR7, stimulated with gardiquimod 7.5 μM; read-out: TLR 7 IC50
T2 construct: host or cells: HEK-Blue cells (HEK293-derived reporter line)
T2 sequence (Q9NYK1 27-1049): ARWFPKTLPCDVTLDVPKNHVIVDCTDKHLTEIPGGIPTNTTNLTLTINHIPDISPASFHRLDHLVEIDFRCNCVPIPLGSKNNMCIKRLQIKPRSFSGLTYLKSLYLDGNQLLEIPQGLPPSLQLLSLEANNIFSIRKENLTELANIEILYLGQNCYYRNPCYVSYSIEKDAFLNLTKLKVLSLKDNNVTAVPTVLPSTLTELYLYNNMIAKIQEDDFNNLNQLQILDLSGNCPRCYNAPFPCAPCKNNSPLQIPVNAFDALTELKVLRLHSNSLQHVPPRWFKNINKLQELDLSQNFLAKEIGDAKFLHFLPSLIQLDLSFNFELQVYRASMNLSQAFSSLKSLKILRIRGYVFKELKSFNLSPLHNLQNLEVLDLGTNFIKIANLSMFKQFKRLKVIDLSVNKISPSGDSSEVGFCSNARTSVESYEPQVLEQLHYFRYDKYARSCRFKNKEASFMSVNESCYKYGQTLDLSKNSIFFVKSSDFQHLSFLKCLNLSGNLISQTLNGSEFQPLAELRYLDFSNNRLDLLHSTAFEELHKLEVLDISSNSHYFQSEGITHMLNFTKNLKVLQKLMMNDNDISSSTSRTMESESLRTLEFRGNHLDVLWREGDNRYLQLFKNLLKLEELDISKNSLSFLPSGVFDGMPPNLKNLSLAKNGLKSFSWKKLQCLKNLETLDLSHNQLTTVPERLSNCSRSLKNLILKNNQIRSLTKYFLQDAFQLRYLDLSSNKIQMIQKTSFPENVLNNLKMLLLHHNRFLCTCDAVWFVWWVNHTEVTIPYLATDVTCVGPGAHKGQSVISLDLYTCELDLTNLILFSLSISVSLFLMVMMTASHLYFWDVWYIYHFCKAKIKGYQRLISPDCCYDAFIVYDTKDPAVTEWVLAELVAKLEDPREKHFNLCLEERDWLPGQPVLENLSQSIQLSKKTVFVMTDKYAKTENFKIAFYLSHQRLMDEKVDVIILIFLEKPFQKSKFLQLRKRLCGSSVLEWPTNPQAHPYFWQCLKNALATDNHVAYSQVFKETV
Procedure, shortened: as §1

[3] = molecular target: T3, human TLR8 (Homo sapiens, UniProt Q9NR97); experiment: TLR8 inhibition reporter assay (HEK-Blue cells, secreted embryonic alkaline phosphatase reporter); details: HEK-Blue cells overexpressing human TLR8, stimulated with R848 15.9 μM; read-out: TLR 8 IC50
T3 construct: host or cells: HEK-Blue cells (HEK293-derived reporter line)
T3 sequence (Q9NR97 27-1041): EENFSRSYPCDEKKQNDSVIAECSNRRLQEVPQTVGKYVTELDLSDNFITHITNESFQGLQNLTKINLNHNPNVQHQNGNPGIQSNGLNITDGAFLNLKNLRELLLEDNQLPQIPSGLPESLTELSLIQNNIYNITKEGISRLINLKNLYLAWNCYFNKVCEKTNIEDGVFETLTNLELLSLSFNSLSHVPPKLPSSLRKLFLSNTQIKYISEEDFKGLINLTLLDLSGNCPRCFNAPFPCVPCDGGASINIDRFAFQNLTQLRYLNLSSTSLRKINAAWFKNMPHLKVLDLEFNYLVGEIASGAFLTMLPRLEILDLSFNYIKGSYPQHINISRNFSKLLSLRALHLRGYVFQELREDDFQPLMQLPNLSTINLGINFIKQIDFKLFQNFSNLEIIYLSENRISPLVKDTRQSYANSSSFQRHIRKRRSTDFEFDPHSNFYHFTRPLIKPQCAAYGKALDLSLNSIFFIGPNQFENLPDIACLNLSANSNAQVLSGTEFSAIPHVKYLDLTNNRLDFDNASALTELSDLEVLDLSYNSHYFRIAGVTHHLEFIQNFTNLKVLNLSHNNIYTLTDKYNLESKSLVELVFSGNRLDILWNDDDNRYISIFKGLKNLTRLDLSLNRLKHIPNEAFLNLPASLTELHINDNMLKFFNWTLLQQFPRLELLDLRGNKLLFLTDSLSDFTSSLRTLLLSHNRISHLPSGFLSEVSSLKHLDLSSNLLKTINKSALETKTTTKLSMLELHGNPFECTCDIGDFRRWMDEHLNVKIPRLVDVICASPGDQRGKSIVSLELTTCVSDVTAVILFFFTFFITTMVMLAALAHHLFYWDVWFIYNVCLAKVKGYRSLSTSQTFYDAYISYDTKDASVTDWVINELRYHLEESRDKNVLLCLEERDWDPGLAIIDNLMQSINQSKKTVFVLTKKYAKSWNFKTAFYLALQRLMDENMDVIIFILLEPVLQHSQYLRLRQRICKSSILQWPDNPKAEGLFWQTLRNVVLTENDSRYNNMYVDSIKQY
Procedure, shortened: as §1

[4] = HEK-Blue cells overexpressing human TLR9, stimulated with ODN2006 5 nM, read-out: TLR 9 IC50
[5] = HEK-Blue cells overexpressing human TLR9, stimulated with ODN2006 5 nM, 22 hour incubation, reporter readout

Structure (SMILES) | IC50 [1, 4] | IC50 ([1]; HEK-Blue human TLR9 reporter cells) | IC50 [2] | IC50 [3] | IC50 [1, 5] | IC50 [1]
COCCN1C2CCC1CC(N1CCC(c3cc(F)c4nc(-c5ccc(S(C)(=O)=O)cc5)n(C)c4c3)CC1)C2 (single isomer, unassigned) [Example 290, 4-fluoro-6-(1-(8-(2-methoxyethyl)-8-azabicyclo[3.2.1]octan-3-yl)piperidin-4-yl)-1-methyl-2-(4-(methylsulfonyl)phenyl)-1H-benzo[d]imidazole] | 144 nM | 150 nM | 22200 nM | > 50000 nM |  | 
Cc1cc(C2CCN(C3CCCN(C4CCC4)CC3)CC2)cc2c1nc(-c1ccc(S(C)(=O)=O)cc1)n2C (single isomer, unassigned) [Example 111, 6-(1-(1-cyclobutylazepan-4-yl)piperidin-4-yl)-1,4-dimethyl-2-(4-(methylsulfonyl)phenyl)-1H-benzo[d]imidazole] |  |  | 1500 nM | > 50000 nM | 24 nM | 
COc1ccc(-c2nc3c(C)cc(C4CCN(C5CC6CCC(C5)N6C5COC5)CC4)cc3n2C)cc1OC (single isomer, unassigned) [Example 165, 2-(3,4-dimethoxyphenyl)-1,4-dimethyl-6-(1-(8-(oxetan-3-yl)-8-azabicyclo[3.2.1]octan-3-yl)piperidin-4-yl)-1H-benzo[d]imidazole] | 1300 nM |  | > 25000 nM | > 25000 nM |  | 1300 nM
Cn1c(-c2ccc(S(C)(=O)=O)cc2)nc2cc(F)c(C3CCN(C4CCN(C5CC5)CC4)CC3)cc21 [Example 222, 6-(1′-cyclopropyl-[1,4′-bipiperidin]-4-yl)-5-fluoro-1-methyl-2-(4-(methylsulfonyl)phenyl)-1H-benzo[d]imidazole] | 133 nM |  | 35600 nM | > 50000 nM |  | 130 nM
COc1ccc(-c2nc3cc(C4CCN(C5CCN(CC(C)C)CC5)CC4)ccc3n2C)cc1OC [Example 34, 2-(3,4-dimethoxyphenyl)-5-(1′-isobutyl-[1,4′-bipiperidin]-4-yl)-1-methyl-1H-benzo[d]imidazole] | 173 nM |  | 16000 nM | > 50000 nM | 170 nM | 
Cn1c(-c2ccc(S(C)(=O)=O)cc2)nc2c(F)c(C3CCN(C4CC5CCC(C4)N5C4COC4)CC3)ccc21 (stereo not shown) [Example 195, 4-fluoro-1-methyl-2-(4-(methylsulfonyl)phenyl)-5-(1-(8-(oxetan-3-yl)-8-azabicyclo[3.2.1]octan-3-yl)piperidin-4-yl)-1H-benzo[d]imidazole] | 490 nM |  | > 50000 nM | > 50000 nM |  | 490 nM
CC(C)CN1C2CCC1CC(N1CCC(c3ccc4nc(-c5ccc(S(C)(=O)=O)cc5)n(C)c4c3F)CC1)C2 (single isomer, unassigned) [Example 266, 7-fluoro-6-(1-(8-isobutyl-8-azabicyclo[3.2.1]octan-3-yl)piperidin-4-yl)-1-methyl-2-(4-(methylsulfonyl)phenyl)-1H-benzo[d]imidazole] | 97 nM |  | 18600 nM | > 50000 nM |  | 97 nM
Cn1c(-c2ccc(S(C)(=O)=O)cc2)nc2c(F)cc(C3CCN(C4CCN(C5COC5)CC4)CC3)cc21 [Example 279, 4-fluoro-1-methyl-2-(4-(methylsulfonyl)phenyl)-6-(1′-(oxetan-3-yl)-[1,4′-bipiperidin]-4-yl)-1H-benzo[d]imidazole] | 1220 nM |  | 19500 nM | > 50000 nM |  | 1200 nM
Cc1cc(-c2cc(F)c(CN3CCC(N4CCCC4)CC3)c(F)c2)cc2c1nc(-c1ccc(S(C)(=O)=O)cc1)n2C [Example 391, 6-(3,5-difluoro-4-((4-(pyrrolidin-1-yl)piperidin-1-yl)methyl)phenyl)-1,4-dimethyl-2-(4-(methylsulfonyl)phenyl)-1H-benzo[d]imidazole] | 178 nM |  | 2100 nM | 11700 nM | 180 nM | 
Cc1cc(-c2ccc(N3CCC(N(C)C)CC3)cc2)cc2c1nc(-c1ccc(S(C)(=O)=O)cc1)n2C [Example 368, 1-(4-(1,4-dimethyl-2-(4-(methylsulfonyl)phenyl)-1H-benzo[d]imidazol-6-yl)phenyl)-N,N-dimethylpiperidin-4-amine] | 414 nM |  | 1400 nM | 1700 nM | 410 nM | 
Cc1cc(-c2cc(F)c(CN3CCC(N(C)C)CC3)c(F)c2)cc2c1nc(-c1ccc(S(C)(=O)=O)cc1)n2C [Example 392, 1-(4-(1,4-dimethyl-2-(4-(methylsulfonyl)phenyl)-1H-benzo[d]imidazol-6-yl)-2,6-difluorobenzyl)-N,N-dimethylpiperidin-4-amine] | 466 nM |  | 10200 nM | 6400 nM | 470 nM | 
